# Measured values reported in PubChem BioAssay (NCI).
#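 Grown in 96-well plates, cells were treated for 48 hours with each compound at five concentrations. Insufficient inhibition: endpoint recorded as highest concentration tested. GI50 is the concentration that inhibits growth by half. TGI: concentration producing complete growth inhibition.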
# Assays:
# Assay in all cases: NCI anticancer screen, dose series, 48 h
# 786-0 renal = system: 786-0 renal
# A498 renal = system: A498 renal
# A549 NSCLC = system: A549 NSCLC
# ACHN renal = system: ACHN renal
# BT-549 breast = system: BT-549 breast
# CAKI-1 renal = system: CAKI-1 renal
# CCRF-CEM leukemia = system: CCRF-CEM leukemia
# COLO 205 colon = system: COLO 205 colon
# DU-145 prostate = system: DU-145 prostate
# EKVX NSCLC = system: EKVX NSCLC
# HCC-2998 colon = system: HCC-2998 colon
# HCT-116 colon = system: HCT-116 colon
# HCT-15 colon = system: HCT-15 colon
# HL-60(TB) leukemia = system: HL-60(TB) leukemia
# HOP-62 NSCLC = system: HOP-62 NSCLC
# HOP-92 NSCLC = system: HOP-92 NSCLC
# HS 578T breast = system: HS 578T breast
# HT29 colon = system: HT29 colon
# IGROV1 ovarian = system: IGROV1 ovarian
# K-562 leukemia = system: K-562 leukemia
# KM12 colon = system: KM12 colon
# LOX IMVI melanoma = system: LOX IMVI melanoma
# M14 melanoma = system: M14 melanoma
# MALME-3M melanoma = system: MALME-3M melanoma
# MCF7 breast = system: MCF7 breast
# MDA-MB-231 breast = system: MDA-MB-231 breast
# MDA-MB-435 = system: MDA-MB-435
# MOLT-4 leukemia = system: MOLT-4 leukemia
# NCI-H226 lung = system: NCI-H226 lung
# NCI-H23 lung = system: NCI-H23 lung
# NCI-H460 lung = system: NCI-H460 lung
# NCI-H522 lung = system: NCI-H522 lung
# NCI/ADR-RES ovarian = system: NCI/ADR-RES ovarian
# OVCAR-3 ovarian = system: OVCAR-3 ovarian
# OVCAR-4 ovarian = system: OVCAR-4 ovarian
# OVCAR-5 ovarian = system: OVCAR-5 ovarian
# OVCAR-8 ovarian = system: OVCAR-8 ovarian
# PC-3 prostate = system: PC-3 prostate
# RPMI-8226 leukemia = system: RPMI-8226 leukemia
# SF-268 CNS = system: SF-268 CNS
# SF-295 CNS = system: SF-295 CNS
# SF-539 CNS = system: SF-539 CNS
# SK-MEL-2 melanoma = system: SK-MEL-2 melanoma
# SK-MEL-28 melanoma = system: SK-MEL-28 melanoma
# SK-MEL-5 melanoma = system: SK-MEL-5 melanoma
# SK-OV-3 ovarian = system: SK-OV-3 ovarian
# SN12C renal = system: SN12C renal
# SNB-19 CNS = system: SNB-19 CNS
# SNB-75 CNS = system: SNB-75 CNS
# SR leukemia = system: SR leukemia
# SW-620 colon = system: SW-620 colon
# T-47D breast = system: T-47D breast
# TK-10 renal = system: TK-10 renal
# U251 CNS = system: U251 CNS
# UACC-257 melanoma = system: UACC-257 melanoma
# UACC-62 melanoma = system: UACC-62 melanoma
# UO-31 renal = system: UO-31 renal
smiles,measurement,setting,value
CC(Nc1ncnc2ccc(-c3cnc(N)nc3)cc12)c1ccccc1 (centres undefined),GI50,786-0 renal,5.33 µM
same,TGI,786-0 renal,> 100 µM
same,GI50,A498 renal,1.42 µM
same,TGI,A498 renal,6.52 µM
same,GI50,A549 NSCLC,6.48 µM
same,TGI,A549 NSCLC,> 100 µM
same,GI50,ACHN renal,3.02 µM
same,TGI,ACHN renal,18.6 µM
same,GI50,BT-549 breast,2.22 µM
same,TGI,BT-549 breast,12 µM
same,GI50,CAKI-1 renal,3.17 µM
same,TGI,CAKI-1 renal,17.8 µM
same,GI50,CCRF-CEM leukemia,7.7 µM
same,TGI,CCRF-CEM leukemia,> 100 µM
same,GI50,COLO 205 colon,13.5 µM
same,TGI,COLO 205 colon,47.5 µM
same,GI50,DU-145 prostate,4.34 µM
same,TGI,DU-145 prostate,> 100 µM
same,GI50,EKVX NSCLC,1.97 µM
same,TGI,EKVX NSCLC,10.4 µM
same,GI50,HCC-2998 colon,8.05 µM
same,TGI,HCC-2998 colon,50.8 µM
same,GI50,HCT-116 colon,8.01 µM
same,TGI,HCT-116 colon,24.3 µM
same,GI50,HCT-15 colon,4.12 µM
same,TGI,HCT-15 colon,54.6 µM
same,GI50,HL-60(TB) leukemia,14.8 µM
same,TGI,HL-60(TB) leukemia,43.7 µM
same,GI50,HOP-62 NSCLC,5.76 µM
same,TGI,HOP-62 NSCLC,> 100 µM
same,GI50,HOP-92 NSCLC,1.04 µM
same,TGI,HOP-92 NSCLC,5.62 µM
same,GI50,HS 578T breast,2.15 µM
same,TGI,HS 578T breast,8.64 µM
same,GI50,HT29 colon,8.41 µM
same,TGI,HT29 colon,46.4 µM
same,GI50,IGROV1 ovarian,1.95 µM
same,TGI,IGROV1 ovarian,8.26 µM
same,GI50,K-562 leukemia,6.32 µM
same,TGI,K-562 leukemia,> 100 µM
same,GI50,KM12 colon,7.91 µM
same,TGI,KM12 colon,36.3 µM
same,GI50,LOX IMVI melanoma,4.26 µM
same,TGI,LOX IMVI melanoma,16.9 µM
same,GI50,M14 melanoma,6.76 µM
same,TGI,M14 melanoma,31.6 µM
same,GI50,MALME-3M melanoma,3.03 µM
same,TGI,MALME-3M melanoma,19.5 µM
same,GI50,MCF7 breast,4.1 µM
same,TGI,MCF7 breast,24.4 µM
same,GI50,MDA-MB-231 breast,3.38 µM
same,TGI,MDA-MB-231 breast,15.5 µM
same,GI50,MDA-MB-435,11.1 µM
same,TGI,MDA-MB-435,42 µM
same,GI50,MOLT-4 leukemia,5.37 µM
same,TGI,MOLT-4 leukemia,> 100 µM
same,GI50,NCI-H226 lung,3.57 µM
same,TGI,NCI-H226 lung,22 µM
same,GI50,NCI-H23 lung,9.2 µM
same,TGI,NCI-H23 lung,37.4 µM
same,GI50,NCI-H460 lung,4.79 µM
same,TGI,NCI-H460 lung,31.1 µM
same,GI50,NCI-H522 lung,4.9 µM
same,TGI,NCI-H522 lung,> 100 µM
same,GI50,NCI/ADR-RES ovarian,9.42 µM
same,TGI,NCI/ADR-RES ovarian,47.3 µM
same,GI50,OVCAR-3 ovarian,4.59 µM
same,TGI,OVCAR-3 ovarian,20.1 µM
same,GI50,OVCAR-4 ovarian,4.55 µM
same,TGI,OVCAR-4 ovarian,43.4 µM
same,GI50,OVCAR-5 ovarian,3.4 µM
same,TGI,OVCAR-5 ovarian,37.5 µM
same,GI50,OVCAR-8 ovarian,10.8 µM
same,TGI,OVCAR-8 ovarian,30.2 µM
same,GI50,PC-3 prostate,4.05 µM
same,TGI,PC-3 prostate,> 100 µM
same,GI50,RPMI-8226 leukemia,4.66 µM
same,TGI,RPMI-8226 leukemia,42.9 µM
same,GI50,SF-268 CNS,5.26 µM
same,TGI,SF-268 CNS,34.5 µM
same,GI50,SF-295 CNS,4.5 µM
same,TGI,SF-295 CNS,27 µM
same,GI50,SF-539 CNS,6.2 µM
same,TGI,SF-539 CNS,19.2 µM
same,GI50,SK-MEL-2 melanoma,20.4 µM
same,TGI,SK-MEL-2 melanoma,> 100 µM
same,GI50,SK-MEL-28 melanoma,9.05 µM
same,TGI,SK-MEL-28 melanoma,53.1 µM
same,GI50,SK-MEL-5 melanoma,7.28 µM
same,TGI,SK-MEL-5 melanoma,20.8 µM
same,GI50,SK-OV-3 ovarian,6.67 µM
same,TGI,SK-OV-3 ovarian,> 100 µM
same,GI50,SN12C renal,2.9 µM
same,TGI,SN12C renal,15.7 µM
same,GI50,SNB-19 CNS,9.29 µM
same,TGI,SNB-19 CNS,44.1 µM
same,GI50,SNB-75 CNS,2.76 µM
same,TGI,SNB-75 CNS,23.1 µM
same,GI50,SR leukemia,4.08 µM
same,TGI,SR leukemia,> 100 µM
same,GI50,SW-620 colon,15.2 µM
same,TGI,SW-620 colon,51.7 µM
same,GI50,T-47D breast,1.91 µM
same,TGI,T-47D breast,46.4 µM
same,GI50,TK-10 renal,1.59 µM
same,TGI,TK-10 renal,14.2 µM
same,GI50,U251 CNS,6.92 µM
same,TGI,U251 CNS,60 µM
same,GI50,UACC-257 melanoma,23.9 µM
same,TGI,UACC-257 melanoma,> 100 µM
same,GI50,UACC-62 melanoma,4.48 µM
same,TGI,UACC-62 melanoma,18.2 µM
same,GI50,UO-31 renal,1.29 µM
same,TGI,UO-31 renal,16.4 µM
